For seven cell lines, relative viability results are on record in the supplement of paper PMC10307832.

Test in all cases: relative viability (nuclei count vs DMSO), 5 days (fraction); higher = more cells survive
Compound in experiment [1]: CN1CCN(CC1)C2=CC(=C(C=C2)NC3=NC=C4C(=N3)N(C5=CC=CC=C5C(=O)N4C)C)OC [XMD8-85] + C[C@@H](Oc1cc(-c2cnn(C3CCNCC3)c2)cnc1N)c1c(Cl)ccc(F)c1Cl [Crizotinib] (partner 1 µM)
In outline:
(§1)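 After 5 days of treatment, lung cancer cells in 1536-well plates were fixed and stained in a single step (final 0.05% Triton X-100, 1% formaldehyde, 1 ug/ml Hoechst) and their nuclei counted on 4× images. Treatment had been applied by pin tool the day after seeding as one drug alone or as a fixed anchor-drug dose with five library-drug doses (not always all listed) in √10 steps. Relative viability is the nuclei count of treated wells divided by that of vehicle wells, and values are medians of duplicate plates.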

Compound in experiment [2]: O=C(O)C(Cc1ccccc1[N+](=O)[O-])=NNc1nc(-c2ccc(Cl)c(Cl)c2)cs1 (mixture of isomers) [4EGI-1] + CC1(C)CCC(c2ccc(Cl)cc2)=C(CN2CCN(c3ccc(C(=O)NS(=O)(=O)c4ccc(N[C@H](CCN5CCOCC5)CSc5ccccc5)c(S(=O)(=O)C(F)(F)F)c4)cc3)CC2)C1 [Navitoclax] (partner 0.5 µM)
In outline: as §1

Compound in experiment [3]: O=C(O)C(Cc1ccccc1[N+](=O)[O-])=NNc1nc(-c2ccc(Cl)c(Cl)c2)cs1 (mixture of isomers) [4EGI-1] + CCNC(=O)c1noc(-c2cc(C(C)C)c(O)cc2O)c1-c1ccc(CN2CCOCC2)cc1 [Luminespib] (partner 0.01 µM)
In outline: as §1

Compound in experiment [4]: O=C(O)C(Cc1ccccc1[N+](=O)[O-])=NNc1nc(-c2ccc(Cl)c(Cl)c2)cs1 (mixture of isomers) [4EGI-1] + Cc1nc(Nc2ncc(C(=O)Nc3c(C)cccc3Cl)s2)cc(N2CCN(CCO)CC2)n1 [Dasatinib] (partner 0.075 µM)
In outline:
as §1

Consider ChaGo-K-1, for which the relative viability in experiment [1] (first compound 0.08 µM) amounted to 1.08; in experiment [1] (first compound 0.253 µM), 1.15; in experiment [1] (first compound 0.8 µM), 1.44; in experiment [1] (first compound 2.53 µM) it was 0.887; in experiment [2] (first compound 0.5 µM), 0.775; in experiment [2] (first compound 5 µM), 1.1. Besides, the relative viability in experiment [2] (first compound 15.81 µM) came to 0.773; in experiment [2] (first compound 50 µM), 0.247; in experiment [3] (first compound 0.5 µM), 0.631; in experiment [3] (first compound 1.581 µM), 0.38; in experiment [3] (first compound 5 µM), 0.62; in experiment [3] (first compound 15.81 µM), 0.517. Also, the relative viability in experiment [3] (first compound 50 µM) worked out at 0.491; in experiment [4] (first compound 0.5 µM), 0.661; in experiment [4] (first compound 1.581 µM), 0.629; in experiment [4] (first compound 5 µM), 0.639; in experiment [4] (first compound 15.81 µM) it was 0.48; in experiment [4] (first compound 50 µM), 0.25.

Take NCI-H727: the relative viability in experiment [1] (first compound 0.08 µM) was 0.78; in experiment [1] (first compound 0.253 µM), 0.777; in experiment [1] (first compound 0.8 µM), 0.755; in experiment [1] (first compound 2.53 µM) it was 0.595; in experiment [1] (first compound 8 µM), 0.358; in experiment [2] (first compound 0.5 µM), 0.434. For the same cell line, the relative viability in experiment [2] (first compound 1.581 µM) worked out at 0.519; in experiment [2] (first compound 5 µM), 0.427; in experiment [2] (first compound 15.81 µM), 0.257; in experiment [2] (first compound 50 µM), 0.204; in experiment [3] (first compound 0.5 µM) it was 0.506; in experiment [3] (first compound 1.581 µM), 0.381. Further, the relative viability in experiment [3] (first compound 5 µM) came to 0.273; in experiment [3] (first compound 15.81 µM), 0.449; in experiment [3] (first compound 50 µM) it was 0.429; in experiment [4] (first compound 0.5 µM), 0.323; in experiment [4] (first compound 1.581 µM), 0.436; in experiment [4] (first compound 5 µM), 0.344. The relative viability in experiment [4] (first compound 15.81 µM) was found to be 0.272; in experiment [4] (first compound 50 µM), 0.23.

With NCI-H596, the relative viability is 0.991 in experiment [1] (first compound 0.08 µM); 0.906 in experiment [1] (first compound 0.253 µM); 0.875 in experiment [1] (first compound 0.8 µM); 0.789 in experiment [1] (first compound 2.53 µM); 0.781 in experiment [1] (first compound 8 µM); 0.956 in experiment [2] (first compound 0.5 µM). Besides, the relative viability in experiment [2] (first compound 1.581 µM) amounted to 0.708; in experiment [2] (first compound 5 µM) it was 0.86; in experiment [2] (first compound 15.81 µM), 0.869; in experiment [2] (first compound 50 µM) it was 0.805; in experiment [3] (first compound 0.5 µM), 1.02; in experiment [3] (first compound 1.581 µM), 0.955. In addition, the relative viability in experiment [3] (first compound 5 µM) came out at 1.03; in experiment [3] (first compound 15.81 µM) it was 1.07; in experiment [3] (first compound 50 µM) it was 0.508; in experiment [4] (first compound 0.5 µM), 0.714; in experiment [4] (first compound 1.581 µM), 0.566; in experiment [4] (first compound 5 µM) it was 0.584. Moreover, the relative viability in experiment [4] (first compound 15.81 µM) turned out to be 0.582; in experiment [4] (first compound 50 µM), 0.491.

NCI-H2347: the relative viability stood at 0.696 in experiment [1] (first compound 0.08 µM); 0.785 in experiment [1] (first compound 0.253 µM); 0.749 in experiment [1] (first compound 0.8 µM); 0.609 in experiment [1] (first compound 2.53 µM); 0.614 in experiment [1] (first compound 8 µM); 0.972 in experiment [2] (first compound 0.5 µM). Further, the relative viability in experiment [2] (first compound 1.581 µM) was 0.586; in experiment [2] (first compound 5 µM), 0.776; in experiment [2] (first compound 15.81 µM), 0.861; in experiment [2] (first compound 50 µM), 0.721; in experiment [3] (first compound 0.5 µM), 0.499; in experiment [3] (first compound 5 µM) it was 0.438. Further, the relative viability came out at 0.426 in experiment [3] (first compound 15.81 µM); 0.411 in experiment [3] (first compound 50 µM); 0.339 in experiment [4] (first compound 0.5 µM); 0.318 in experiment [4] (first compound 5 µM); 0.305 in experiment [4] (first compound 15.81 µM); 0.336 in experiment [4] (first compound 50 µM).

Turning to NCI-H2126, the relative viability in experiment [1] (first compound 0.08 µM) turned out to be 1.02; in experiment [1] (first compound 0.253 µM), 0.974; in experiment [1] (first compound 0.8 µM), 1.02; in experiment [1] (first compound 2.53 µM), 1.06; in experiment [1] (first compound 8 µM), 1; in experiment [2] (first compound 0.5 µM), 0.892. The relative viability in experiment [2] (first compound 1.581 µM) was 0.793; in experiment [2] (first compound 5 µM), 0.858; in experiment [2] (first compound 15.81 µM), 0.709; in experiment [2] (first compound 50 µM), 0.806; in experiment [3] (first compound 0.5 µM) it was 0.993; in experiment [3] (first compound 5 µM) it was 0.96. In addition, the relative viability came to 0.855 in experiment [3] (first compound 15.81 µM); 0.678 in experiment [3] (first compound 50 µM); 0.673 in experiment [4] (first compound 0.5 µM); 0.629 in experiment [4] (first compound 5 µM); 0.383 in experiment [4] (first compound 15.81 µM); 0.309 in experiment [4] (first compound 50 µM).

As to HARA, the relative viability was 1.21 in experiment [1] (first compound 0.08 µM); 0.885 in experiment [1] (first compound 0.253 µM); 1.3 in experiment [1] (first compound 0.8 µM); 0.94 in experiment [1] (first compound 2.53 µM); 0.417 in experiment [1] (first compound 8 µM); 1.15 in experiment [2] (first compound 0.5 µM). Also, the relative viability in experiment [2] (first compound 1.581 µM) stood at 1.1; in experiment [2] (first compound 5 µM), 1.12; in experiment [2] (first compound 15.81 µM), 1.15; in experiment [2] (first compound 50 µM) it was 0.672; in experiment [3] (first compound 0.5 µM), 0.954; in experiment [3] (first compound 1.581 µM), 0.958. Further, the relative viability was 0.968 in experiment [3] (first compound 5 µM); 0.645 in experiment [3] (first compound 15.81 µM); 0.0683 in experiment [3] (first compound 50 µM); 0.273 in experiment [4] (first compound 0.5 µM); 0.319 in experiment [4] (first compound 1.581 µM); 0.283 in experiment [4] (first compound 5 µM). Besides, the relative viability in experiment [4] (first compound 15.81 µM) was 0.206; in experiment [4] (first compound 50 µM), 0.218.

On to A-427, for which the relative viability in experiment [1] (first compound 0.08 µM) is 0.897; in experiment [1] (first compound 0.253 µM), 0.934; in experiment [1] (first compound 0.8 µM) it was 0.922; in experiment [1] (first compound 2.53 µM) it was 1.05; in experiment [1] (first compound 8 µM), 0.56; in experiment [2] (first compound 0.5 µM), 0.998. Further, the relative viability in experiment [2] (first compound 1.581 µM) was determined as 0.823; in experiment [2] (first compound 5 µM), 0.815; in experiment [2] (first compound 15.81 µM), 0.687; in experiment [2] (first compound 50 µM), 0.928; in experiment [3] (first compound 0.5 µM), 1.04; in experiment [3] (first compound 1.581 µM) it was 0.658. The relative viability in experiment [3] (first compound 5 µM) was 1.01; in experiment [3] (first compound 15.81 µM) it was 0.793; in experiment [3] (first compound 50 µM), 0.315; in experiment [4] (first compound 0.5 µM), 0.797; in experiment [4] (first compound 1.581 µM) it was 0.513; in experiment [4] (first compound 5 µM), 0.527. In addition, the values for the relative viability in experiment [4] (first compound 15.81 µM) and in experiment [4] (first compound 50 µM) were 0.46 and 0.159, respectively.
